Data: paper PMC10895678 (Journal of Medicinal Chemistry, 2024)
Several values for one entry are separate records, joined by “and”; a condition that tells them apart may be missing. Identical values can stand only once. Like-named read-outs stand apart in the source and are kept apart here.

Columns and labels:
[1] = Mouse PK, multiple oral dosing of single compounds; format: in vivo, KM mice; settings: for half-life / AUC(0-inf) / Cmax / Tmax: 30 mg/kg
Source text: Methods for combined single dosing (BGAz001–005) and dosing of single compounds multiple times (BGAz004 and BGAz005) are described in detail in the Supporting Information (PK Data).
Report on PK results of BGAz-004 by multiple oral dosing
7 Materials and instrument combined dosing
An MS2 Turnover type oscillator was purchased from IKA Work’s Guangzhou (China), and a 5415R ChromatographicanalyseswereconductedusinganAgilent1290InfinityIIhighperformanceliquidchromatography andAgilentTechnologies6470TripleQuadLC/MS.Propranolol(≥90%inpurity,internalstandard,IS)waspurchased fromtheSigmaChemicalCo.(China).Formicacid(HPLCgrade)andmethanol(HPLCgrade)werepurchasedfrom DIKMACo.(China).Allchemicalsandsolventswereanalyticalgrade.WaterwaspurifiedusingaMillipore(AK,USA) laboratoryultra-purewatersystem(0.2μmfilter).
KMmice,weighing25–35g(BeijingVitalRiverLaboratoryAnimalTechnologyCo.,Ltd.,China)wereutilisedforthe studies.The protocols were approved by the Animal Care and Use Committee, GIBH. Animals were maintained on standard animal chow and waterad libitum, in a climate-controlled room (23±1 °C 30–70% relative humidity, a minimumof tenexchangesof roomairperhouranda12hlight/darkcycle)foroneweekpriortoexperiments.
9 Pharmacokinetic studies
Compound BGAz-004 were dissolved in the solution containing DMSO (2%), ethanol (4%), Cremophor EL (4%) and ddH2O (90%).The mice were given solution with 30 mg/kg bygastric gavagefor 3 days.Whole blood samples (100μL)wereobtainedfromtheorbitalvenousplexusatthefollowingtimepointsafterthethirddaydosing:5,15,30 min and 1, 3, 5, 8, 24 hour. Whole blood samples were collected in heparinised tubes. The plasma fraction was immediately separated by centrifugation. The mice were humanely euthanasia by carbon dioxide 24 hours after […]
10 Plasma sample analysis
10.1 Standard curve sample preparation
ThecompoundsweredissolvedinDMSO(2mg/mL)anddilutedwithtoseriesconcentration(methanol:H 2O,1:1,10 μL) and blank plasma (50 μL) were added to 1.5 mL tubes and vortexed for 3 min, then acetonitrile-containing internalstandard(150μL)wasaddedandvortexedforafurther5min,andsubsequentlyspuninacentrifugeat13000 […]
10.2 Plasma and preparation
Plasmasampleswerepreparedusingaproteinprecipitationmethod.Solution(10μL,methanolH 2O,1:1)andplasma samples(50μL)wereaddedto1.5mLtubesandvortexfor3min,thenacetonitrile-containinginternalstandard(150 μL)wasaddedandvortexfor5min,andsubsequentlyspuninacentrifugeat13000× gfor40minat4°C.
Aftercentrifugation,supernatant(100μL)wastransferto96wellplatesandanalysedbyLC-MS/MSusinganAgilent 1290InfinityIIHPLCandanAgilentTechnologies6470TripleQuadLC/MS.
Report on PK results of BGAz-005 by multiple oral dosing
13 Materials and instrument combined dosing […]
fromtheSigmaChemicalCo.(China).Formicacid(HPLCgrade)andmethanol(HPLCgrade)werepurchased from […]
15 Pharmacokinetic studies
Compound BGAz-005 were dissolved in the solution containing DMSO (2%), ethanol (4%), Cremophor EL (4%) […]
16 Plasma sample analysis
16.1 Standard curve sample preparation
16.2 Plasma and preparation

M. tuberculosis H37Rv = assay: Mycobacterial time kill experiments (total viable counts); format: cell-based, Mycobacterium tuberculosis; settings: 96 μM, after 6 days of exposure
M. smegmatis = assay: Inhibition of macromolecular synthesis (radiolabeled precursor incorporation); format: cell-based, Mycobacterium smegmatis
Method: Inhibition of macromolecular biosynthesis was assayed by measuring the incorporation of radiolabeled precursors into DNA, RNA, protein, peptidoglycan, and fatty acids in the 10% trichloroacetic acid (TCA) extracts of cells exposed to azetidines. M. smegmatis were cultured in 7H9 media supplemented with 0.05% Tween-80 and grown to an OD600 of 0.4. Cultures (5 mL) were then transferred into sterile glass tubes and preincubated with 0× , 0.5× , 0.75× and 1 × MIC99 azetidines for 1 h at 37 °C with shaking. After preincubation, 10 μL of 500 nCi/μL [methyl-^3H]thymidine, 500 nCi/μL [5,6-^3H]uridine, 500 nCi/μL L-[4,5-^3H]leucine, 500 nCi/μL [^3H]meso-diaminopimelic acid, and 500 nCi/μL [^14C]acetic acid were added to cultures to measure synthesis of DNA, RNA, protein, peptidoglycan and lipids, respectively. All cultures were incubated for 36 h, and 100 μL samples were sacrificed at 6, 12, 24, and 36 h time points by the addition of 50 μL 30%TCA/70% ethanol in Eppendorf tubes. Tubes were incubated at room temperature for 60 min to allow for precipitation of macromolecular material. Samples were individually vacuum filtered using 0.025 μm membrane filters (VSWP01300, MF-Millipore) that were prewashed with 500 μL 70% ethanol. Samples were washed with 3 × 500 μL 5% TCA, followed by 2 × 95% ethanol. Filter papers were dried and combined with 5 mL of scintillation fluid before measuring radioactive counts.

BCG pTIC6-fbpA = format: cell-based, Mycobacterium bovis BCG
BCG pTIC6-fbpB = format: cell-based, Mycobacterium bovis BCG
BCG pTIC6-fbpC = format: cell-based, Mycobacterium bovis BCG
M. bovis BCG = format: cell-based, Mycobacterium bovis BCG
BCG = format: cell-based, Mycobacterium bovis BCG
[2] = KM, mouse, plasma, multiple PO 30 mg/kg, times 3, mean of animals
[3] = multiple PO 30 mg/kg, times 3, mean of animals

For `CNCC1CC(c2ccc(OC(F)(F)F)cc2)N1Cc1ccccc1OC(F)(F)F` (stereo not shown) [BGAz-005], the half-life ([1]; KM, mouse, plasma, oral, mice, read-out: blood plasma half-life) was > 72 h, the AUC(0-inf) ([1]; KM, mouse, plasma, po, multiple PO 30 mg/kg, times 3, mean of animals, read-out: AUC(0-∞)) was 82.2 µg·h/mL and the Cmax ([1]; KM, mouse, plasma, po, multiple PO 30 mg/kg, times 3, mean of animals, read-out: Cmax) was 1.71 µg/mL. The Tmax ([1]; KM, mouse, plasma, po, multiple PO 30 mg/kg, times 3, mean of animals, read-out: Tmax) was 0.875 h, the half-life ([1]; KM, mouse, plasma, po, multiple PO 30 mg/kg, times 3, mean of animals, read-out: t1/2z (converted)) was 80.4 h and the AUC(0-inf) ([1]; KM, mouse, plasma, po, multiple PO, times 3, 30 mg/kg, summary table, read-out: AUC(0-∞)) was 82.2 µg·h/mL. The Cmax ([1]; KM, mouse, plasma, po, multiple PO, times 3, 30 mg/kg, summary table, read-out: Cmax) was 1.71 µg/mL, the half-life ([1]; KM, mouse, plasma, po, multiple PO, times 3, 30 mg/kg, summary table, read-out: T1/2 (converted)) was 80.4 h and the Tmax ([1]; KM, mouse, plasma, po, multiple PO, times 3, 30 mg/kg, summary table, read-out: Tmax) was 0.875 h. It also gave an AUC(0-inf) ([1]; KM, mouse, plasma, po, multiple daily dosing 3 × 30 mg/kg PO, read-out: AUC0-inf) of 82.2 µg·h/mL, a Cmax ([1]; KM, mouse, plasma, po, multiple daily dosing 3 × 30 mg/kg PO, read-out: Cmax (Mouse, P.O.)) of 1.71 µg/mL and a half-life ([1]; KM, mouse, plasma, po, multiple daily dosing 3 × 30 mg/kg PO, read-out: T1/2 (Mouse, P.O.) (converted)) of 80.4 h. For the same molecule, the Tmax ([1]; KM, mouse, plasma, po, multiple daily dosing 3 × 30 mg/kg PO, read-out: Tmax (Mouse, P.O.)) was 0.87 h, the concentration at 0.083 h ([1]; KM, mouse, plasma, multiple PO 30 mg/kg, times 3, 0.083 h) was 1.97 µM and 858 ng/mL and the concentration at 0.25 h ([1]; KM, mouse, plasma, multiple PO 30 mg/kg, times 3, 0.25 h) was 2.69 µM and 1170 ng/mL. The concentration at 0.5 h ([1]; KM, mouse, plasma, multiple PO 30 mg/kg, times 3, 0.5 h) was 3.53 µM and 1540 ng/mL, the concentration at 1 h ([1]; KM, mouse, plasma, multiple PO 30 mg/kg, times 3, 1 h) was 3.75 µM and 1630 ng/mL and the concentration at 3 h ([1]; KM, mouse, plasma, multiple PO 30 mg/kg, times 3, 3 h) was 1.96 µM and 855 ng/mL. The concentration at 5 h ([1]; KM, mouse, plasma, multiple PO 30 mg/kg, times 3, 5 h) was 714 ng/mL and 1.64 µM, the concentration at 8 h ([1]; KM, mouse, plasma, multiple PO 30 mg/kg, times 3, 8 h) was 608 ng/mL and 1.4 µM and the concentration at 24 h ([1]; KM, mouse, plasma, multiple PO 30 mg/kg, times 3, 24 h) was 570 ng/mL and 1.31 µM. It also gave an AUC [1, 2] of 16.8 µg·h/mL, an AUC(0-t) [1, 2] of 16.8 µg·h/mL and a CL/F ([1]; KM, mouse, plasma, multiple PO 30 mg/kg, times 3, mean of animals, read-out: CLz/F (converted)) of 0.787 L/h/kg. For the same molecule, the MRT last ([1]; KM, mouse, plasma, multiple PO 30 mg/kg, times 3, mean of animals, read-out: MRT(0-t)) was 10.3 h, the MRT inf ([1]; KM, mouse, plasma, multiple PO 30 mg/kg, times 3, mean of animals, read-out: MRT(0-∞)) was 116 h and the Vd/F ([1]; KM, mouse, plasma, multiple PO 30 mg/kg, times 3, mean of animals, read-out: Vz/F) was 34.4 L/kg. For the same molecule, the k el ([1]; KM, mouse, plasma, multiple PO 30 mg/kg, times 3, mean of animals, read-out: λz (converted)) was 1.42e-05 s⁻¹, the “AUMC(0-t)” value [1, 3] was 172065.476 h*h*μg/L and the “AUMC(0-∞)” value [1, 3] was 21124940.36 h*h*μg/L. It also gave a C_last [1, 3] of 0.3942 µg/mL, a Cav [1, 3] of 0.699901 µg/mL and a DF [1, 3] of 2.398. The “R_AUC(t/∞)” value [1, 3] was 45.975%, the “VRT(0-t)” value [1, 3] was 76.208 h^2 and the “VRT(0-∞)” value [1, 3] was 32368.115 h^2. For the same molecule, the “reduction of total viable count” value (M. tuberculosis H37Rv) was 3.28 ± 1.00 log10 CFU mL^–1, the “loss of lipid biosynthesis ([14C]-acetic acid incorporation)” value (M. smegmatis; 0.5 × MIC) was ~50% and the “loss of lipid biosynthesis ([14C]-acetic acid incorporation)” value (M. smegmatis; 1 × MIC) was ~75%. For the same molecule, the “reduction of incorporation of [3H]-thymidine, [3H]-uridine, [3H]-leucine” value (M. smegmatis; 1 × MIC) was 20%, the “effect on incorporation of [3H]-thymidine, [3H]-uridine, [3H]-leucine” value (M. smegmatis; up to 0.75 × MIC) was “almost no effect” and the BCG pTIC6-fbpA MIC (BCG pTIC6-fbpA) was 25 µM. The BCG pTIC6-fbpB MIC (BCG pTIC6-fbpB) was 50 µM, the “increase in MIC upon overexpression of FbpB” value (BCG pTIC6-fbpB) was “two-fold increase” and the BCG pTIC6-fbpC MIC (BCG pTIC6-fbpC) was 50 µM. The “increase in MIC upon overexpression of FbpC” value (BCG pTIC6-fbpC) was “two-fold increase”, the “log2FoldChange, gene BCG_0001” value (M. bovis BCG) was -0.2829 and the “log2FoldChange, gene BCG_0002” value (M. bovis BCG) was -0.6164. For the same molecule, the “log2FoldChange, gene BCG_0003” value (M. bovis BCG) was -0.7815, the “log2FoldChange, gene BCG_0004” value (M. bovis BCG) was -0.2846 and the “log2FoldChange, gene BCG_0005” value (M. bovis BCG) was 0.5809. The induced genes (M. bovis BCG; 8 h exposure, 1 × MIC) was 160, the repressed genes (M. bovis BCG; 8 h exposure, 1 × MIC) was 126 and the “TMM and TDM in cell envelope lipids” value (BCG; 0.5 × MIC) was “significant reduction”. For the same molecule, the “TMM and TDM in cell envelope lipids” value (BCG; concentrations beyond the MIC) was “complete loss”.
